From US10040853B2, “Methods and compositions involving NKG2D inhibitors and cancer” (Fred Hutchinson Cancer Research Center, priority 2011, dated 2018)

Columns and labels:
Format in all cases: cell-based, human
P-ERK1/2(T202/Y204) = experiment: ERK MAP kinase activation by sMICA plus crosslinking anti-His tag Ab (immunoblot); conditions: for phosphorylation of ERK1/2: desensitized EpCAM+CD45− ovarian cancer (OT63), HTB-78, MCF-7-TF cells, sMICA 1 μg/ml crosslinked by anti-His tag Ab, or EGF 100 ng/ml
Text: (§1) NKG2D was immunoprecipitated from standard NP-40 buffer lysates of FACSAria-sorted EpCAM^+CD45^− cancer cells (˜5×10^6 per lane), tumor lines (˜5×10^7 cells; 2×10^7 cells with BT-20), and transfectants (5×10^6 cells) using mAb 5C6 immobilized on AminoLink Plus Coupling Resin (Pierce). DAP10 was immunoprecipitated using rabbit polyclonal antibodies (FL-93; Santa Cruz Biotechnology). Immunoblots were probed with polyclonal antibodies to NKG2D or DAP10 (N-20 and N-17; Santa Cruz Biotechnology), or Grb2 (Cell Signaling Technology) and developed using secondary reagents and Supersignal West Dura Extended Duration Substrate (Pierce). Immunoprecipitation and immunoblot detection of mouse NKG2D utilized a rat mAb (clone 191004; R&D Systems) and goat polyclonal reagent (H-15; Santa Cruz Biotechnology), respectively. For P-AKT induction, cancer cells and tumor lines (2×10^6 cells per experimental condition) cultured in 6-well plates were desensitized for 16 h and 4-24 h, respectively, in serum-free RPMI at 37° C. before exposure in 0.5 ml RPMI to insulin (5 μg/ml; 35 min at 37° C.), mAb 1D11 (purified with MabTrap Kit; GE Healthcare Life Sciences) or mAb 5C6 F(ab′)2 (produced with Pierce F(ab′)2 preparation kit) (each 5 μg/ml; 30 min at 4° C.). For crosslinking, washed cells in 0.2 ml RPMI were exposed to goat anti-mouse F(ab′)2 (20 μg/ml; 5 min at 37° C.; Jackson ImmunoResearch). Wortmannin (100 nM; Sigma) was applied 2 h before stimulations. Reactions were terminated on ice by addition of 1 ml sodium orthovanadate (Na3VO4, 2 mM in cold PBS; Calbiochem) and cells resuspended in NP-40 lysis buffer with protease inhibitor cocktail (Roche) and Na3VO4. Cleared supernatants were subjected to SDS-PAGE (4-12% gradient NuPAGE gels; Invitrogen) and proteins electroblotted onto PVDF membranes (Immobilon-P; Millipore), which were probed with rabbit anti-human phospho-AKT(S473) (clone 193H12) or pan-AKT (clone C67E7), secondary HRP-conjugated anti-rabbit IgG (all from Cell Signaling Technology), and chemiluminescent reagent. […] Inhibitors wortmannin (100 nM) and rapamycin (50 nM; LC Laboratories) were added after 2 h of desensitization. Detached cells were sequentially washed and exposed to 1D11 mAb and crosslinking Ab in 0.5 and 0.2 ml cold HBSS, respectively, and processed as above. […] Phosphoproteins and protein controls were detected using rabbit polyclonal antibodies (to P-mTOR, P-S6K1, and P-4E-BP1), mAbs (clones 7C10, 236B4, and 53H11), and anti-rabbit IgG-HRP (all from Cell Signaling Technology). MAPKs were detected with cells grown to semi-confluence in 6-well plates and desensitized for 24 h. […]
(§2) As determined so far, signaling pathway activation by NKG2D-DAP10 in tumor cells was similar to lymphocytes. […]

P-JNK1/2(T183/Y185) = experiment: JNK MAP kinase activation by sMICA plus crosslinking anti-His tag Ab (immunoblot); conditions: for phosphorylation of JNK1/2: desensitized EpCAM+CD45− ovarian cancer (OT63), HTB-78, MCF-7-TF cells, sMICA 1 μg/ml crosslinked by anti-His tag Ab, or EGF 100 ng/ml
Text: as §1, §2

surface NKG2D = experiment: Flow cytometry of tumor lines for surface NKG2D; conditions: breast, colon, gastric, ovarian, prostate tumor lines after exposure
Description: Tumor cell lines BT-20, MDA-MB-453, HTB-78, AGS, MDA-MB-231, DLD-1, PC3, and A375 were grown in RPMI 1640, and MCF-7 in Eagle's minimal essential medium (EMEM) plus insulin (0.01 mg/ml; Sigma), both media supplemented with 10% FBS. The mouse TEC and PAM 212 lines were from the ATCC, and […] was provided by Dr. Norm Greenberg (FHCRC). Abs for immunohistochemistry and flow cytometry of cell surface markers were mAb together with HRP-conjugated secondary reagents and mAb-fluorochrome conjugates, respectively, to NKG2D (clone 1D11, -APC; 3), MICA/MICB (clone 6D4, -PE; 7), CD45 (clone 2D1, -APC-Cy7), CD3 (clone UCHT1) (all from BD Pharmingen), and EpCAM (clone 9C4, -Alexa Fluor 488; BioLegend). Binding of anti-ULBP1-5 antibodies (mAbs 3F1, 6F6, 4F9, 6E6, and 6D10; 14) was visualized with a PE-conjugated secondary reagent. Cancer cell viability was assessed using a LIVE/DEAD Fixable Violet Dead Cell Stain kit (Invitrogen). Immunohistochemistry stainings of tissue cryosections employed the Envision System (Dako) protocol. Cells were examined for mAb surface stainings using a BD LSR II flow cytometer and FlowJo software (Tree Star).

P-AKT(S473) [1] = experiment: P-AKT induction after NKG2D crosslinking in freshly isolated cancer cells (immunoblot); conditions: sorted EpCAM+CD45− breast, ovarian, prostate cancer cells after serum deprivation; crosslinked Ab 5 μg/ml or insulin 5 μg/ml
Text: (§3) NKG2D was immunoprecipitated from standard NP-40 buffer lysates of FACSAria-sorted EpCAM^+CD45^− cancer cells (˜5×10^6 per lane), tumor lines (˜5×10^7 cells; 2×10^7 cells with BT-20), and transfectants (5×10^6 cells) using mAb 5C6 immobilized on AminoLink Plus Coupling Resin (Pierce). DAP10 was immunoprecipitated using rabbit polyclonal antibodies (FL-93; Santa Cruz Biotechnology). Immunoblots were probed with polyclonal antibodies to NKG2D or DAP10 (N-20 and N-17; Santa Cruz Biotechnology), or Grb2 (Cell Signaling Technology) and developed using secondary reagents and Supersignal West Dura Extended Duration Substrate (Pierce). Immunoprecipitation and immunoblot detection of mouse NKG2D utilized a rat mAb (clone 191004; R&D Systems) and goat polyclonal reagent (H-15; Santa Cruz Biotechnology), respectively. […] Phosphoproteins and protein controls were detected using rabbit polyclonal antibodies (to P-mTOR, P-S6K1, and P-4E-BP1), mAbs (clones 7C10, 236B4, and 53H11), and anti-rabbit IgG-HRP (all from Cell Signaling Technology). MAPKs were detected with cells grown to semi-confluence in 6-well plates and desensitized for 24 h. […]

P-AKT(S473) [2] = experiment: P-AKT induction after NKG2D crosslinking in tumor lines (immunoblot); conditions: desensitized MCF-7, BT-20, MDA-MB-453, HTB-78, DLD-1, AGS cells
Text: as §3

[3] = test system: P-mTOR(S2448), P-S6K1(T389), and P-4E-BP1(T37/46); experiment: Activation of mTOR-S6K1/4E-BP1 after NKG2D crosslinking (immunoblot); conditions: HTB-78 and MCF-7-TF cells after starvation
Description: Detached cells were sequentially washed and exposed to 1D11 mAb and crosslinking Ab in 0.5 and 0.2 ml cold HBSS, respectively, and processed as above. Sample electrophoresis was in 3-8% (mTOR) and 4-12% (4E-BP1) gradient NuPAGE gels. Phosphoproteins and protein controls were detected using rabbit polyclonal antibodies (to P-mTOR, P-S6K1, and P-4E-BP1), mAbs (clones 7C10, 236B4, and 53H11), and anti-rabbit IgG-HRP (all from Cell Signaling Technology).

[4] = test system: AKT(S473) phosphorylation; experiment: Inducible AKT phosphorylation in siRNA-transduced MCF-7 cells; conditions: lentiviral siRNA transduction
Text: as §3

MCF-7 cells = experiment: Expansion of siRNA-transduced MCF-7 cells
DAP10 = DAP10 protein depletion by siRNA (immunoblot); conditions: CD8 T cells, 2×10^6 per lane
Text: as §3

[5] = U0126 10 μM, SP600125 100 μM, wortmannin 200 nM, added 30 min before stimulation
[6] = tumor cell exposure to sMICA or anti-His tag Ab alone, no crosslinking

Molecule: N#CC(=C(/N)Sc1ccccc1N)/C(C#N)=C(\N)Sc1ccccc1N [U0126, reference compound]
- effect of inhibitor on appearance of P-ERK1/2 (P-ERK1/2(T202/Y204); [5]): diminished
- effect of inhibitor on appearance of P-JNK1/2 (P-JNK1/2(T183/Y185); [5]): not vice versa

Molecule: EGF: rhEGF, positive control activation of MAP kinases [reference compound]
- phosphorylation of ERK1/2 (P-ERK1/2(T202/Y204)): positive control activation
- phosphorylation of JNK1/2 (P-JNK1/2(T183/Y185)): positive control activation

Molecule: IL-15: cytokine which induces T cell NKG2D
- surface NKG2D expression (surface NKG2D): No increased expression

Molecule: insulin: positive control activation of AKT, 5 μg/ml
- induction of Phospho-AKT (P-AKT) (P-AKT(S473) [1]): positive control activation except for the unresponsive prostate cancer cells
- induction of P-AKT (P-AKT(S473) [2]): positive control activation
- induction of P-mTOR(S2448), P-S6K1(T389), P-4E-BP1(T37/46) [3]: positive control activation

B1: DAP10 siRNA: lentivirally expressed hairpin siRNA targeting DAP10 (HCST) mRNA positions 165-193; oligonucleotides SEQ ID NO:21 and 22 (nucleic acid, listed as Homo sapiens)
chain 1: CTAGAAGCTCAGACGACTCCAGGAGAGAGATCATTCAAGAGATGATCTCTCTCCTGGAGTCGTCTGAGCTTTTTTTGAT
chain 2: ATCAAAAAAAGCTCAGACGACTCCAGGAGAGAGATCATCTCTTGAATGATCTCTCTCCTGGAGTCGCTGAGCTT
modifications: the letters are possibly those of the target site
- inducible AKT(S473) phosphorylation [4]: Absence of inducible AKT(S473) phosphorylation
- proliferation of transduced cells (MCF-7 cells): proliferated poorly
- depletion of DAP10 (DAP10): depletion

B2: sMICA: recombinant soluble MICA, His-tagged NKG2D ligand purified from transfected 293T cells (protein)
chain: EPHSLRYNLTVLSWDGSVQSGFLTEVHLDGQPFLRCDRQKCRAKPQGQWAEDVLGNKTWDRETRDLTGNGKDLRMTLAHIKDQKEGLHSLQEIRVCEIHEDNSTRSSQHFYYDGELFLSQNLETKEWTMPQSSRAQTLAMNVRNFLKEDAMKTKTHYHAMHADCLQELRRYLKSGVVLRRTVPPMVNVTRSEASEGNITVTCRASGFYPWNITLSWRQDGVSLSHDTQQWGDVLPDGNGTYQTWVATRICQGEEQRFTCYMEHSGNHSTHPVPSGKVLVLQSHW
modifications: left off: small tags and cut ends
notes: recombinant soluble MICA, His-tagged NKG2D ligand purified from transfected 293T cells
- phosphorylation of ERK1/2 (P-ERK1/2(T202/Y204)): resulted in phosphorylation
- phosphorylation of ERK1/2, reagent alone (P-ERK1/2(T202/Y204); [6]): no effect
- phosphorylation of JNK1/2 (P-JNK1/2(T183/Y185)): resulted in phosphorylation
- phosphorylation of JNK1/2, reagent alone (P-JNK1/2(T183/Y185); [6]): no effect
